The values below come from ChEMBL document CHEMBL1201862, “PubChem BioAssay data set” (2004).

Among the test systems are HOP-92; ACHN; SNB-75; OVCAR-8; UACC-257; KM12; HOP-62; NCI-H522; LOX IMVI; IGROV-1; NCI-H226; A498; TK-10; HL-60; U-251; Malme-3M; 786-0.
Holding throughout (assay): growth of human tumour cells (NCI), 48 h

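Following 48 hours of exposure in 96-well plates, responses at five concentrations were used to interpolate endpoints linearly. GI50 = concentration required for 50% inhibition of growth.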 Activity calls are given as the source filed them. Rule as the data show it: active = GI50 up to about 1.1 µM and inactive = higher.

With `Cc1ccc(NC(=O)CC2Sc3ccccc3NC2=O)cc1C` (centres undefined), the GI50 in the experiment with HOP-92 was 26 µM (inactive); in the experiment on ACHN it was 54.8 µM (inactive); in the experiment on SNB-75, 39.8 µM (inactive); with OVCAR-8, 46.8 µM (inactive); in the experiment with UACC-257, > 100 µM (inactive); in the experiment on KM12, 90.4 µM (inactive). Besides, the GI50 in the experiment with HOP-62 is > 100 µM (inactive); in the experiment on NCI-H522, > 100 µM (inactive); in the experiment on LOX IMVI, 38.6 µM (inactive); with IGROV-1, > 100 µM (inactive); with NCI-H226, 57.9 µM (inactive); in the experiment with A498 it was 37.9 µM (inactive). In addition, the GI50 was > 100 µM (inactive) with TK-10, 24.5 µM (inactive) with HL-60, 79.6 µM (inactive) with U-251 and > 100 µM (inactive) with Malme-3M.

For the compound `Cc1ccc(NC(=O)CCC(=O)C(C#N)c2ccccc2)cc1C` (centres undefined), the GI50 in the experiment on 786-0, with HOP-92, in the experiment on ACHN, in the experiment on OVCAR-8, with UACC-257 and in the experiment on KM12 was > 100 µM (inactive) throughout. The GI50 in the experiment with NCI-H522, in the experiment with LOX IMVI, in the experiment with IGROV-1, with NCI-H226, in the experiment on A498 and with TK-10 was > 100 µM (inactive) in each case. Also, the GI50 in the experiment with HL-60, in the experiment on U-251 and in the experiment with Malme-3M was > 100 µM (inactive) in each case.

`Sc1nnc(COc2ccc(Cl)cc2Cl)[nH]1`: the GI50 with 786-0, in the experiment on HOP-92, with ACHN, with SNB-75, in the experiment with OVCAR-8 and with UACC-257 was > 100 µM (inactive) throughout. For the same compound, the GI50 is > 100 µM (inactive) with LOX IMVI; > 100 µM (inactive) in the experiment on IGROV-1; > 100 µM (inactive) in the experiment on NCI-H226; > 100 µM (inactive) in the experiment on A498; > 100 µM (inactive) in the experiment with TK-10; 26.4 µM (inactive) with HL-60. For the same compound, the GI50 in the experiment on U-251 and in the experiment with Malme-3M was > 100 µM (inactive) throughout.

For the compound `Nc1c(Cl)ncnc1NCCCNc1ncnc(Cl)c1N`, the GI50 is > 100 µM (inactive) with 786-0; > 100 µM (inactive) in the experiment on HOP-92; > 100 µM (inactive) with ACHN; > 100 µM (inactive) with OVCAR-8; 67 µM (inactive) in the experiment with UACC-257; > 100 µM (inactive) in the experiment with KM12. Further, the GI50 in the experiment with HOP-62 was > 100 µM (inactive); in the experiment on NCI-H522 it was 69.3 µM (inactive); in the experiment on LOX IMVI it was > 100 µM (inactive); with IGROV-1, > 100 µM (inactive); in the experiment with NCI-H226, > 100 µM (inactive); with A498, > 100 µM (inactive). For the same compound, the GI50 in the experiment on TK-10, with HL-60 and in the experiment on U-251 was > 100 µM (inactive) each time.

As for `O=S1(=O)OCCOS(=O)(=O)C1Br`, the GI50 in the experiment on 786-0, in the experiment with HOP-92, in the experiment on SNB-75, in the experiment with OVCAR-8, in the experiment with UACC-257 and in the experiment with KM12 was > 100 µM (inactive) throughout. Also, the GI50 is > 100 µM (inactive) with HOP-62; > 100 µM (inactive) with NCI-H522; > 100 µM (inactive) in the experiment with IGROV-1; < 0.01 µM (active) in the experiment with NCI-H226; > 100 µM (inactive) with A498; > 100 µM (inactive) in the experiment on TK-10. The GI50 in the experiment with HL-60 and in the experiment on Malme-3M was > 100 µM (inactive) in each case.

`COc1ccc(OC)c(/C=C(/C#N)c2ccccc2)c1`: the GI50 with 786-0 is 19 µM (inactive); in the experiment on HOP-92, 17.7 µM (inactive); with ACHN it was 49 µM (inactive); in the experiment on SNB-75 it was 10.8 µM (inactive); with OVCAR-8, 37.2 µM (inactive); in the experiment with KM12 it was 10 µM (inactive). For the same compound, the GI50 with HOP-62 is 40.3 µM (inactive); with NCI-H522, 14 µM (inactive); with LOX IMVI, 16.1 µM (inactive); with IGROV-1, 31.7 µM (inactive); with NCI-H226 it was 26.9 µM (inactive); with A498, 20.2 µM (inactive). For the same compound, the GI50 with TK-10 is 28.4 µM (inactive); in the experiment with HL-60, 3.95 µM (inactive); in the experiment with U-251 it was 31.8 µM (inactive); in the experiment with Malme-3M it was 35.6 µM (inactive).

Consider `N#CCCN(CCC#N)C(=O)c1cccc(C(=O)N(CCC#N)CCC#N)c1`, for which the GI50 in the experiment with 786-0 was > 100 µM (inactive); in the experiment with HOP-92, > 58.7 µM (inactive); with ACHN it was > 100 µM (inactive); in the experiment with SNB-75 it was > 44.6 µM (inactive); with OVCAR-8, > 50 µM (inactive); with UACC-257, > 100 µM (inactive). Moreover, the GI50 in the experiment with KM12 is > 93.3 µM (inactive); in the experiment with HOP-62, > 100 µM (inactive); in the experiment with NCI-H522, > 100 µM (inactive); in the experiment with LOX IMVI, 16.4 µM (inactive); with IGROV-1, > 100 µM (inactive); in the experiment on A498 it was > 100 µM (inactive). The GI50 with HL-60 was > 55.2 µM (inactive); in the experiment with U-251, > 45.8 µM (inactive); in the experiment with Malme-3M it was 72.1 µM (inactive).

On to `O=C1NC(=O)C2C(=O)NC(=O)C1C2Cc1ccco1` (centres undefined), for which the GI50 with 786-0, in the experiment with HOP-92, in the experiment with ACHN, with SNB-75, in the experiment with OVCAR-8 and with UACC-257 was > 100 µM (inactive) in each case. Moreover, the GI50 with KM12, with NCI-H522, in the experiment on LOX IMVI, in the experiment on IGROV-1, with NCI-H226 and with A498 was > 100 µM (inactive) in each case. The GI50 in the experiment with TK-10, in the experiment on HL-60 and in the experiment with Malme-3M was > 100 µM (inactive) each time.

Turning to `OC(CCNC12CC3CC(CC(C3)C1)C2)c1ccccc1` (centres undefined), the GI50 in the experiment on 786-0 is > 100 µM (inactive); with HOP-92, 78.3 µM (inactive); with ACHN, > 100 µM (inactive); in the experiment with SNB-75, 75.7 µM (inactive); with OVCAR-8, > 100 µM (inactive); with UACC-257, > 100 µM (inactive). For the same compound, the GI50 in the experiment with KM12 is 88.9 µM (inactive); in the experiment with HOP-62 it was > 100 µM (inactive); with NCI-H522, > 100 µM (inactive); with IGROV-1 it was 72.1 µM (inactive); with NCI-H226, > 100 µM (inactive); in the experiment with A498, > 100 µM (inactive). Moreover, the GI50 in the experiment on TK-10, in the experiment on HL-60, with U-251 and with Malme-3M was > 100 µM (inactive) throughout.

`Cc1ccc(S(=O)(=O)N/N=c2\c(C)c(C3=NS(=O)(=O)c4cc(S(N)(=O)=O)c(Cl)cc4N3)oc3c(Cl)cc(Cl)cc23)cc1`: the GI50 in the experiment on 786-0 is > 100 µM (inactive); in the experiment on HOP-92 it was 27.7 µM (inactive); in the experiment on ACHN it was > 100 µM (inactive); in the experiment with SNB-75 it was > 100 µM (inactive); with OVCAR-8 it was > 100 µM (inactive); in the experiment on UACC-257 it was > 100 µM (inactive). Besides, the GI50 was > 100 µM (inactive) in the experiment with KM12; > 100 µM (inactive) in the experiment on HOP-62; 86.5 µM (inactive) in the experiment with LOX IMVI; > 100 µM (inactive) in the experiment on IGROV-1; > 100 µM (inactive) in the experiment on NCI-H226; > 100 µM (inactive) in the experiment with A498. Also, the GI50 was > 100 µM (inactive) in the experiment with TK-10, > 100 µM (inactive) with HL-60, 23.5 µM (inactive) in the experiment on U-251 and > 100 µM (inactive) in the experiment on Malme-3M.

Take `c1ccc2c(c1)[nH]c1c2nc2ncccn21`: the GI50 in the experiment with 786-0, in the experiment on HOP-92, in the experiment with ACHN, in the experiment on SNB-75, in the experiment on OVCAR-8 and with UACC-257 was > 100 µM (inactive) in each case. Also, the GI50 in the experiment on KM12, in the experiment with HOP-62, in the experiment with NCI-H522, in the experiment on IGROV-1, in the experiment on NCI-H226 and with A498 was > 100 µM (inactive) each time. The GI50 in the experiment on TK-10 was > 100 µM (inactive); with HL-60, > 10 µM (inactive); in the experiment with U-251, > 100 µM (inactive); with Malme-3M it was > 100 µM (inactive).

On to `COc1cc2c(cc1OC)C(N(C)C)C(c1ccccc1)=C2Cl` (centres undefined), for which the GI50 with 786-0 is 25.3 µM (inactive); in the experiment on HOP-92, 17.9 µM (inactive); with SNB-75 it was 20 µM (inactive); in the experiment on OVCAR-8, 18.9 µM (inactive); with UACC-257, 18 µM (inactive); in the experiment on KM12, 23.2 µM (inactive). Also, the GI50 was 36.4 µM (inactive) in the experiment with HOP-62; 10.1 µM (inactive) in the experiment with NCI-H522; 17.4 µM (inactive) in the experiment on LOX IMVI; 21.8 µM (inactive) in the experiment on IGROV-1; 21.9 µM (inactive) in the experiment with NCI-H226; 22.5 µM (inactive) in the experiment on A498. In addition, the GI50 is 37.5 µM (inactive) in the experiment with TK-10, 16.1 µM (inactive) in the experiment on HL-60 and 16.6 µM (inactive) with U-251.

Consider `COC(=O)C1[C@H](c2ccc3c(c2)OCO3)OC(=O)[C@]1(C(=O)OC)C(=O)c1ccc(OC)c(OC)c1` (some centres undefined), for which the GI50 was > 100 µM (inactive) with 786-0; 44.4 µM (inactive) with HOP-92; 60.3 µM (inactive) with ACHN; 90.4 µM (inactive) in the experiment with SNB-75; 42.1 µM (inactive) in the experiment on OVCAR-8; 40.2 µM (inactive) with UACC-257. Besides, the GI50 in the experiment with KM12 was 41.3 µM (inactive); in the experiment with HOP-62, > 100 µM (inactive); in the experiment on LOX IMVI it was 18.8 µM (inactive); in the experiment on IGROV-1, 42.3 µM (inactive); with NCI-H226, > 100 µM (inactive); with A498 it was > 100 µM (inactive). For the same compound, the GI50 with TK-10 was > 100 µM (inactive); with HL-60 it was 25.2 µM (inactive); in the experiment on U-251, 44.9 µM (inactive); with Malme-3M, 84.9 µM (inactive).
